Calls of active or inactive are those of the source. No cut-off for these calls is given here.
Experiments:
[1] = (§1) Cytotoxicity against mouse RAW264.7 cells assessed as survival rate at 20 uM incubated for 24 hrs by MTT assay (reference value: 100 %); assay type: toxicity, cell-based; conditions: RAW264.7 cells, read-out: Survival
RAW264.7 [2] = experiment: Anti-inflammatory activity in LPS-induced mouse RAW264.7 cells assessed as NO emission at 20 uM preincubated with compound for 1 hrs followed by LPS stimulation and measured after 24 hrs by Griess reagent based analysis (reference value: 14.05 +/- 1.19 microM); assay type: functional; conditions: time 25 hrs
RAW264.7 [3] = experiment: Anti-inflammatory activity in LPS-induced mouse RAW264.7 cells assessed as inhibition of NO release at 20 uM preincubated with compound for 1 hrs followed by LPS stimulation and measured after 24 hrs by Griess reagent based analysis (reference value: 0 %); assay type: functional; conditions: for inhibition at 20 µM: Mus musculus; for inhibition (INH): time 25 hrs
Mus musculus [4] = experiment: Anti-inflammatory activity in DSS-induced acute colitis male C57BL/6 mouse model assessed as complete colonic mucosa with crypts at 200 mg/kg, po administered for 7 days by H and E staining based analysis; assay type: functional, organism-based; conditions: time 7.0 day
Mus musculus [5] = experiment: Anti-inflammatory activity in DSS-induced acute colitis male C57BL/6 mouse model assessed as reduction in infiltration of inflammatory cells in colon at 200 mg/kg, po administered for 7 days by H and E staining based analysis; assay type: functional, organism-based; conditions: time 7.0 day
RAW264.7 [6] = experiment: Anti-inflammatory activity in LPS-induced mouse RAW264.7 cells assessed as reduction in TNFalpha level at >20 uM preincubated with compound for 1 hrs followed by LPS stimulation and measured after 24 hrs by ELISA; assay type: functional, cell-based; conditions: time 25.0 hrs
RAW264.7 [7] = experiment: Anti-inflammatory activity in LPS-induced mouse RAW264.7 cells assessed as reduction in IL-6 level at >40 uM preincubated with compound for 1 hrs followed by LPS stimulation and measured after 24 hrs by ELISA; assay type: functional, cell-based; conditions: time 25.0 hrs
Mus musculus [8] = experiment: Anti-inflammatory activity in DSS-induced acute colitis male C57BL/6 mouse model assessed as decrease in IL6 expression level in colon at 20 to 80 mg/kg, po administered for 7 days by immunohistochemical staining based analysis; assay type: functional, organism-based; conditions: dose 20-80 mg/kg, time 7.0 day
Mus musculus [9] = experiment: Anti-inflammatory activity in DSS-induced acute colitis male C57BL/6 mouse model assessed as reduction in infiltration of inflammatory cells in colon administered orally for 7 days by H and E staining based analysis; assay type: functional, organism-based; conditions: dose 20-80 mg/kg, route po, time 7.0 day
RAW264.7 [10] = experiment: Cytotoxicity against mouse RAW264.7 cells assessed as reduction in cell viability up to 160 uM incubated for 24 hrs by MTT assay; assay type: toxicity, cell-based; conditions: raw264.7, 24 h
Mus musculus [11] = experiment: Anti-inflammatory activity in DSS-induced acute colitis male C57BL/6 mouse model assessed as decrease in TNF-alpha expression level in colon at 20 to 80 mg/kg, po administered for 7 days by immunohistochemical staining based analysis; assay type: functional, organism-based; conditions: dose 20-80 mg/kg, time 7.0 day
Mus musculus [12] = experiment: Anti-inflammatory activity in DSS-induced acute colitis male C57BL/6 mouse model assessed as decrease in IL1beta expression level in colon at 20 to 80 mg/kg, po administered for 7 days by immunohistochemical staining based analysis; assay type: functional, organism-based; conditions: dose 20-80 mg/kg, time 7.0 day
Mus musculus [13] = experiment: Anti-inflammatory activity in DSS-induced acute colitis male C57BL/6 mouse model assessed as increase in intestine length at 20 to 80 mg/kg, po administered for 7 days; assay type: functional, organism-based; conditions: dose 20-80 mg/kg, time 7.0 day
Mus musculus [14] = experiment: Anti-inflammatory activity in DSS-induced acute colitis male C57BL/6 mouse model assessed as complete colonic mucosa with crypts administered orally for 7 days by H and E staining based analysis; assay type: functional, organism-based; conditions: dose 20-80 mg/kg, route po, time 7.0 day
RAW264.7 [15] = experiment: Anti-inflammatory activity in LPS-induced mouse RAW264.7 cells assessed as reduction in TNFalpha level preincubated with compound for 1 hrs followed by LPS stimulation and measured after 24 hrs by ELISA; assay type: functional, cell-based; conditions: dose 10-160 µM, time 25.0 hrs
RAW264.7 [16] = experiment: Anti-inflammatory activity in LPS-induced mouse RAW264.7 cells assessed as reduction in IL-6 level preincubated with compound for 1 hrs followed by LPS stimulation and measured after 24 hrs by ELISA; assay type: functional, cell-based; conditions: dose 10-160 µM, time 25.0 hrs
RAW264.7 [17] = experiment: as §1; assay type: toxicity, cell-based; conditions: raw264.7, 24 h, 20 µM

CCC(C)C1c2c(ccc3c2OCO3)-c2ccc3cc4c(cc3c2N1C)OCO4 (centres undefined)
viability at 24 h, 20 µM [1]: 114%
Activity (RAW264.7 [2]): 13.15 µM
inhibition at 20 µM (RAW264.7 [3]; RAW264.7, 25 h): 5.57%

C=C(CC1c2c(ccc3c2OCO3)-c2ccc3cc4c(cc3c2N1C)OCO4)C(=O)OC (centres undefined)
viability at 24 h, 20 µM [1]: 111%
Activity (RAW264.7 [2]): 12.66 µM
inhibition at 20 µM (RAW264.7 [3]; RAW264.7, 25 h): 9.4%

Nc1ccc(O)c(C(=O)O)c1
Activity (Mus musculus [4]): Active
Activity (Mus musculus [5]): Active

COC(=O)CCC1c2c(ccc(OC)c2OC)-c2ccc3cc4c(cc3c2N1C)OCO4 (centres undefined)
viability at 24 h, 20 µM [1]: 97.7%
Activity (RAW264.7 [2]): 10.11 µM
inhibition at 20 µM (RAW264.7 [3]; RAW264.7, 25 h): 27.5%

CN1Cc2c(ccc3c2OCO3)-c2ccc3cc4c(cc3c21)OCO4 [DIHYDROSANGUINARINE]
viability at 24 h, 20 µM [1]: 88.7%
Activity (RAW264.7 [2]): 10.36 µM
inhibition at 20 µM (RAW264.7 [3]; RAW264.7, time 25 hrs): 26.1%

CCCCNC(=O)CC1c2c(ccc3c2OCO3)-c2ccc3cc4c(cc3c2N1C)OCO4 (centres undefined)
viability at 24 h, 20 µM [1]: 101%
Activity (RAW264.7 [2]): 10.48 µM
inhibition at 20 µM (RAW264.7 [3]; RAW264.7, 25 h): 24.5%

C=C(CC1c2c(ccc(OC)c2OC)-c2ccc3cc4c(cc3c2N1C)OCO4)C(=O)OC (centres undefined)
viability at 24 h, 20 µM [1]: 130%
Activity (RAW264.7 [2]): 10.14 µM
inhibition at 20 µM (RAW264.7 [3]; RAW264.7, 25 h): 27.2%

CN1c2c(ccc3cc4c(cc23)OCO4)-c2ccc3c(c2C1CC(=O)[O-])OCO3.[Na+] (centres undefined)
viability at 24 h, 20 µM [1]: 91.8%
Activity (RAW264.7 [2]): 11.66 µM
inhibition at 20 µM (RAW264.7 [3]; RAW264.7, 25 h): 16.1%

CCCCNC(=O)CC1c2c(ccc(OC)c2OC)-c2ccc3cc4c(cc3c2N1C)OCO4 (centres undefined)
viability at 24 h, 20 µM [1]: 92.1%
Activity (RAW264.7 [2]): 8.22 µM
inhibition at 20 µM (RAW264.7 [3]; RAW264.7, 25 h): 41.1%

COc1ccc2c(c1OC)C(CC(=O)Nc1ccccc1)N(C)c1c-2ccc2cc3c(cc12)OCO3 (centres undefined)
Activity (RAW264.7 [6]): Active
Activity (RAW264.7 [7]): Active
viability at 24 h, 20 µM [1]: 136%
Activity (Mus musculus [8]): Active
Activity (Mus musculus [9]): Dose-dependent-effect
Activity (RAW264.7 [10]): Non-toxic
Activity (RAW264.7 [2]): 8.16 µM
Activity (Mus musculus [11]): Active
inhibition at 20 µM (RAW264.7 [3]; RAW264.7, 25 h): 41.6%
Activity (Mus musculus [12]): Active
Activity (Mus musculus [13]): Active
Activity (Mus musculus [14]): Dose-dependent-effect
Activity (RAW264.7 [15]): Dose-dependent-effect
Activity (RAW264.7 [16]): Dose-dependent-effect

CN1c2c(ccc3cc4c(cc23)OCO4)-c2ccc3c(c2C1CC(=O)O)OCO3 (centres undefined)
Survival (RAW264.7 [17]): 93.19%
Activity (RAW264.7 [2]): 9.55 µM
inhibition (INH) (RAW264.7 [3]): 31.45%

CN1c2c(ccc3cc4c(cc23)OCO4)-c2ccc3c(c2C1CCO)OCO3 (centres undefined)
viability at 24 h, 20 µM [1]: 160%
Activity (RAW264.7 [2]): 11.57 µM
inhibition at 20 µM (RAW264.7 [3]; RAW264.7, 25 h): 10.1%

COC(=O)CCC1c2c(ccc3c2OCO3)-c2ccc3cc4c(cc3c2N1C)OCO4 (centres undefined)
viability at 24 h, 20 µM [1]: 110%
Activity (RAW264.7 [2]): 10.94 µM
inhibition at 20 µM (RAW264.7 [3]; RAW264.7, 25 h): 21.4%

CCCOC(=O)C(C)C1c2c(ccc(OC)c2OC)-c2ccc3cc4c(cc3c2N1C)OCO4 (centres undefined)
viability at 24 h, 20 µM [1]: 122%
Activity (RAW264.7 [2]): 12.5 µM
inhibition at 20 µM (RAW264.7 [3]; RAW264.7, 25 h): 10.3%

CCC(C)C1c2c(ccc(OC)c2OC)-c2ccc3cc4c(cc3c2N1C)OCO4 (centres undefined)
viability at 24 h, 20 µM [1]: 91.3%
Activity (RAW264.7 [2]): 11.52 µM
inhibition at 20 µM (RAW264.7 [3]; RAW264.7, 25 h): 17%

COc1ccc2c(c1OC)C(CCO)N(C)c1c-2ccc2cc3c(cc12)OCO3 (centres undefined)
viability at 24 h, 20 µM [1]: 103%
Activity (RAW264.7 [2]): 9.75 µM
inhibition at 20 µM (RAW264.7 [3]; RAW264.7, 25 h): 30.1%

COc1ccc2c(c1OC)C(CC(=O)O)N(C)c1c-2ccc2cc3c(cc12)OCO3 (centres undefined)
Survival (RAW264.7 [17]): 82.98%
Activity (RAW264.7 [2]): 9.1 µM
inhibition (INH) (RAW264.7 [3]): 34.87%

COc1ccc2c(c1OC)CN(C)c1c-2ccc2cc3c(cc12)OCO3 [DIHYDROCHELERYTHRINE]
viability at 24 h, 20 µM [1]: 94.3%
Activity (RAW264.7 [2]): 9.91 µM
inhibition at 20 µM (RAW264.7 [3]; RAW264.7, 25 h): 28.9%

CCOC(=O)CC1c2c(ccc3c2OCO3)-c2ccc3cc4c(cc3c2N1C)OCO4 (centres undefined)
viability at 24 h, 20 µM [1]: 109%
Activity (RAW264.7 [2]): 10.5 µM
inhibition at 20 µM (RAW264.7 [3]; RAW264.7, 25 h): 24.5%

COC(=O)C(C)C1c2c(ccc(OC)c2OC)-c2ccc3cc4c(cc3c2N1C)OCO4 (centres undefined)
viability at 24 h, 20 µM [1]: 101%
Activity (RAW264.7 [2]): 11.2 µM
inhibition at 20 µM (RAW264.7 [3]; RAW264.7, 25 h): 19%

COc1ccc2c(c1OC)C(CC(=O)[O-])N(C)c1c-2ccc2cc3c(cc12)OCO3.[Na+] (centres undefined)
viability at 24 h, 20 µM [1]: 98.8%
Activity (RAW264.7 [2]): 12.98 µM
inhibition (INH) (RAW264.7 [3]): 6.77%

CN1c2c(ccc3cc4c(cc23)OCO4)-c2ccc3c(c2C1CC(=O)Nc1ccccc1)OCO3 (centres undefined)
viability at 24 h, 20 µM [1]: 125%
Activity (RAW264.7 [2]): 9.28 µM
inhibition at 20 µM (RAW264.7 [3]; RAW264.7, 25 h): 33.1%

CCOC(=O)CC1c2c(ccc(OC)c2OC)-c2ccc3cc4c(cc3c2N1C)OCO4 (centres undefined)
viability at 24 h, 20 µM [1]: 94.4%
Activity (RAW264.7 [2]): 9.56 µM
inhibition at 20 µM (RAW264.7 [3]; RAW264.7, 25 h): 31.3%
